# Measurements taken from paper PMC3469748 (Molecular and cellular biochemistry, 2012).
# Assays:
# [1] = molecular target: T1, thioredoxin reductase 1 (TrxR) (Rattus norvegicus, UniProt O89049); experiment: DTNB reduction assay
# T1 sequence (O89049 1-499): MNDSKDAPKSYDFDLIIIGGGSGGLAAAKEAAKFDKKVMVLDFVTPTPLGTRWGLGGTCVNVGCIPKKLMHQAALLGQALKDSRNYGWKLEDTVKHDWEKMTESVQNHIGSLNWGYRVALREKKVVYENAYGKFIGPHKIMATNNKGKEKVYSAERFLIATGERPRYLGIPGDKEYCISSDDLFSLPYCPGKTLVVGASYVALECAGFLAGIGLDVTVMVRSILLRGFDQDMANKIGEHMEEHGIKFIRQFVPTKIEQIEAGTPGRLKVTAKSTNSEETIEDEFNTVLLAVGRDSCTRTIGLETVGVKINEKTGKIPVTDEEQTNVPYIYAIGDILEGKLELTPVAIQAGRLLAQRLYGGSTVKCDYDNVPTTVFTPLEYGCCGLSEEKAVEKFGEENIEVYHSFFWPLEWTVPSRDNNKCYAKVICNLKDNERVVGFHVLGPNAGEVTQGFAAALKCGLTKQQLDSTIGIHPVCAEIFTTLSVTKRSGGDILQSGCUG
# [2] = molecular target: T1, thioredoxin reductase 1 (TrxR); experiment: biochemical
Compound,IC50 [1] [µM],IC50 [2] [µM]
CNC(=O)N(NS(C)(=O)=O)S(C)(=O)=O [101MDCE],5.37 ± 0.58,
"O=NN(CCCl)C(=O)NCCCl [Carmustine, 1,3-bis(2-chloroethyl)-1-nitrosourea]",,7.63 ± 0.72
"CNC(=O)N(N(CCCl)S(C)(=O)=O)S(C)(=O)=O [Laromustine, 1,2-bis(methylsulfonyl)-1-(2-chloroethyl)-2-[(methylamino)carbonyl]hydrazine]",4.65 ± 0.37,
